Legend:
Format in all cases: cell-based
interleukin-8 = assay: Protection of UVA/UVB-irradiated keratinocytes measured by interleukin-8 production
Description: (§1) The inflammation of the cells and the measurement of the antiaging effect are based on the irradiation of a cell culture with a combination of UVA and UVB. […] Pure niacinamide at a concentration of 0.4 mg/mL or 1.2 mg/mL is used. For the treatments inducing illumination at 660 nm, 10 different programs are evaluated. These programs are defined in Table 1 below. [table] […] Free radicals are reactive and induce an inflammatory cascade characterized by the production of proinflammatory proteins (p53, pro-opiomelanocortin (POMC), interleukins, etc.) which can be measured in the cell supernatant. […] According to the protocol, at T+48 h, the cell supernatant is collected and the concentrations of interleukins 6 and 8 are measured and compared to the concentrations of interleukins 6 and 8 produced by cells exposed to UV and not subjected to any of the three abovementioned treatments (UV control) and to untreated and non-irradiated cells (non-irradiated control). A degree of protection of the treated cells relative to the UV control is evaluated according to the following formula: Non-irradiated cells show 100% protection and irradiated cells show 0% protection. […]

procollagen-1 = assay: Procollagen-1 production by fibroblasts exposed to UVA and UVB; details: niacinamide 0.4 mg/ml combined with illumination at 660 nm, programs 3 and 8; compared with niacinamide alone and with illumination alone; FIG. 3
Description: The inflammation of the cells and the measurement of the antiaging effect are based on the irradiation of a cell culture with a combination of UVA and UVB. […] Pure niacinamide at a concentration of 0.4 mg/mL or 1.2 mg/mL is used. Attention is now focused on skin aging, known as “photoaging”, induced by UV exposure. One of the parameters of cutaneous aging observed clinically is the appearance of wrinkles associated in part with a decrease in collagen production by the cells of the dermis, the fibroblasts. […] The production of procollagen-1 produced by fibroblasts is measured in the supernatants obtained from the previously defined protocol in which the cells were illuminated either without any other treatment or in combination with niacinamide at a concentration of 0.4 mg/ml, and compared with treatment with niacinamide alone at a concentration of 0.4 mg/ml. The results are shown in FIG. 3 for illumination programs 3 and 8.

interleukin-6 = assay: Protection of UVA/UVB-irradiated keratinocytes measured by interleukin-6 production
Description: as §1

[1] = niacinamide 1.2 mg/ml combined with illumination at 660 nm, all illumination programs

NC(=O)c1cccnc1 [niacinamide]
protection of the skin cells (interleukin-8) compared with illumination alone at 660 nm (interleukin-8; [1]): much greater protection
protection of cells exposed to UV (interleukin-8 concentration) (interleukin-8; niacinamide 1.2 mg/ml combined with pulsed illumination at 660 nm, all 10 programs, relative to UV-exposed cells and/or niacinamide alone, effects particularly visible, FIG. 2): beneficial effect
production of procollagen-1 (procollagen-1): Increased production
protection of the skin cells (interleukin-6) compared with illumination alone at 660 nm (interleukin-6; [1]): much greater protection
protection of cells exposed to UV (interleukin-6 concentration) (interleukin-6; niacinamide 1.2 mg/ml combined with pulsed illumination at 660 nm, all 10 programs, relative to UV-exposed cells and/or niacinamide alone, FIG. 1): beneficial effect
